ChEMBL document CHEMBL6120945, “Peptidomimetic Analogues Act as Effective Inhibitors against SARS-CoV-2 by Blocking the Function of Cathepsin L” (J Med Chem, 2024)
Where a SMILES comes first, the peptide text is derived from it. [ ]: non-standard residue; d: D form. The star is where a group is joined. ξ: configuration not given here. Hydrocinnamoyl = O=C(CCc1ccccc1)*; Nicotinoyl = O=C(c1cccnc1)*; ξF = NC(Cc1ccccc1)C(=O)O; Cbz = O=C(OCc1ccccc1)*; Hexanoyl = CCCCCC(=O)*; PhAc = O=C(Cc1ccccc1)*; Boc = CC(C)(C)OC(=O)*; Butyryl = CCCC(=O)*; Bz = O=C(c1ccccc1)*

Columns and labels:
[1] = target: Replicase polyprotein 1ab (Severe acute respiratory syndrome coronavirus 2, UniProt P0DTD1); assay: Inhibition of recombinant SARS-CoV-2 3CLpro using MCA-AVLQSGFR-Lys(Dnp)-Lys-NH2 as substrate incubated for 1.5 hrs by fluorescence based analysis
[2] = Inhibition of human recombinant Cathepsin L-like protease using Z-FR-AMC as substrate preincubated for 30 mins followed by substrate addition and measured after 1.5 hrs by fluorescence based analysis

Row | Structure (SMILES) | IC50 [1] [µM] | IC50 [2] [µM]
1 | CC(C)C[C@H](NC(=O)OCc1ccccc1)C(=O)N[C@H](C=O)Cc1ccccc1 (Cbz-Leu-Phe-aldehyde) | > 10 | 0.00988
2 | O=C[C@H](Cc1ccccc1)NC(=O)[C@H](CC1CCCCC1)NC(=O)/C=C/c1ccccc1 | > 10 | 0.053
3 | CCCC[C@H](NC(=O)/C=C/c1ccccc1)C(=O)N[C@H](C=O)Cc1ccccc1 | > 10 | 0.157
4 | CC(C)C[C@H](NC(=O)c1cccc(F)c1)C(=O)N[C@H](C=O)Cc1ccccc1 | > 10 | 0.0075
5 | O=C[C@H](Cc1ccccc1)NC(=O)[C@H](Cc1ccccc1)NC(=O)/C=C/c1ccccc1 | > 10 | 0.00665
6 | CC(C)C[C@H](NC(=O)/C=C/c1ccccc1)C(=O)N[C@H](C=O)Cc1ccc([N+](=O)[O-])cc1 | > 10 | 0.345
7 | CC(C)C[C@H](NC(=O)c1ccc([N+](=O)[O-])cc1)C(=O)N[C@H](C=O)Cc1ccccc1 | > 10 | 0.00819
8 | CC(C)C[C@H](NC(=O)CCc1ccccc1)C(=O)N[C@H](C=O)Cc1ccccc1 (Hydrocinnamoyl-Leu-Phe-aldehyde) | > 10 | 0.0182
9 | CCCC(=O)N[C@@H](CC(C)C)C(=O)N[C@H](C=O)Cc1ccccc1 (Butyryl-Leu-Phe-aldehyde) | > 10 | 0.0727
10 | CC(C)C[C@H](NC(=O)c1cc2ccccc2[nH]1)C(=O)N[C@H](C=O)Cc1ccccc1 | > 10 | 0.0101
11 | CC(C)[C@H](NC(=O)OCc1ccccc1)C(=O)NC(C=O)Cc1ccccc1 (stereo partly drawn) (Cbz-Val-[ξF]-aldehyde) |  | 19.9
12 | CC(C)C[C@H](NC(=O)c1ccc(F)cc1)C(=O)N[C@H](C=O)Cc1ccccc1 | > 10 | 0.00985
13 | CC(C)C[C@H](NC(=O)c1ccoc1)C(=O)N[C@H](C=O)Cc1ccccc1 | > 10 | 0.0242
14 | C=Cc1ccc(C(=O)N[C@@H](CC(C)C)C(=O)N[C@H](C=O)Cc2ccccc2)cc1 | > 10 | 0.00941
15 | CC(C)C[C@H](NC(=O)c1ccsc1)C(=O)N[C@H](C=O)Cc1ccccc1 | > 10 | 0.00815
16 | CC(C)C[C@H](NC(=O)Cc1ccccc1)C(=O)N[C@H](C=O)Cc1ccccc1 (PhAc-Leu-Phe-aldehyde) | > 10 | 0.00782
17 | CC(C)C[C@H](NC(=O)C1CCC(F)(F)CC1)C(=O)N[C@H](C=O)Cc1ccccc1 | > 10 | 0.00629
18 | C[C@H](NC(=O)/C=C/c1ccccc1)C(=O)N[C@H](C=O)Cc1ccccc1 | > 10 | 0.0421
19 | CC(C)C[C@H](NC(=O)/C=C/c1ccccc1)C(=O)N[C@H](C=O)Cc1ccc(F)cc1 | > 10 | 0.0741
20 | CC(C)C[C@H](NC(=O)c1ccc(Cl)cc1)C(=O)N[C@H](C=O)Cc1ccccc1 | > 10 | 0.00947
21 | COc1ccc(/C=C/C(=O)N[C@@H](CC(C)C)C(=O)N[C@H](C=O)Cc2ccccc2)cc1 | > 10 | 0.0554
22 | CC(C)C[C@H](NC(=O)/C=C/c1ccccc1)C(=O)N[C@H](C=O)C(C)C | > 10 | 0.0234
23 | CC(C)C[C@H](NC(=O)/C=C/c1ccccc1)C(=O)N[C@H](C=O)CCc1ccccc1 | > 10 | 0.026
24 | CC(C)C[C@H](NC(=O)/C=C/c1ccc(Cl)cc1)C(=O)N[C@H](C=O)Cc1ccccc1 | > 10 | 0.0235

Row | Structure (SMILES) | IC50 [1] [µM] | IC50 [2] [µM]
25 | CC(C)C[C@H](NC(=O)c1cc[nH]c1)C(=O)N[C@H](C=O)Cc1ccccc1 | > 10 | 0.0373
26 | O=C[C@H](Cc1ccccc1)NC(=O)[C@H](Cc1ccc(Br)cc1)NC(=O)/C=C/c1ccccc1 | > 10 | 0.0116
27 | CC(C)C[C@H](NC(=O)/C=C/c1ccccc1)C(=O)N[C@H](C=O)Cc1ccccc1F | > 10 | 0.0234
28 | CC(C)C[C@H](NC(=O)/C=C/c1ccccc1)C(=O)N[C@@H](Cc1ccccc1)C(N)=O | > 10 | > 1
29 | COc1ccc(C[C@@H](C=O)NC(=O)[C@H](CC(C)C)NC(=O)/C=C/c2ccccc2)cc1 | > 10 | 0.131
30 | CC(C)C[C@H](NC(=O)/C=C/c1ccccc1)C(=O)N[C@@H](C=O)Cc1ccccc1 | > 10 | > 1
31 | CC(C)C[C@H](NC(=O)/C=C/c1ccccc1)C(=O)N[C@H](C=O)Cc1ccccc1Br | > 10 | 0.18
32 | CC(C)C[C@H](NC(=O)OC(C)(C)C)C(=O)N[C@H](C=O)Cc1ccccc1 (Boc-Leu-Phe-aldehyde) | > 10 | 0.165
33 | COc1ccc(C(=O)N[C@@H](CC(C)C)C(=O)N[C@H](C=O)Cc2ccccc2)cc1 | > 10 | 0.00606
34 | CC(C)C[C@H](NC(=O)/C=C/c1ccc(F)cc1)C(=O)N[C@H](C=O)Cc1ccccc1 | > 10 | 0.0201
35 | CC(C)C[C@H](NC(=O)/C=C/c1ccccc1)C(=O)N[C@H](C=O)CC1CCCCC1 | > 10 | 0.0478
36 | CC(C)C[C@H](NC(=O)/C=C/c1ccc(Br)cc1)C(=O)N[C@H](C=O)Cc1ccccc1 | > 10 | 0.0384
37 | CC(C)C[C@H](NC(=O)c1ccc[nH]1)C(=O)N[C@H](C=O)Cc1ccccc1 | > 10 | 0.0377
38 | CC(C)C[C@H](NC(=O)/C=C/c1ccccc1F)C(=O)N[C@H](C=O)Cc1ccccc1 | > 10 | 0.0165
39 | CC(C)C[C@H](NC(=O)c1ccco1)C(=O)N[C@H](C=O)Cc1ccccc1 | > 10 | 0.0174
40 | CC(C)[C@H](NC(=O)/C=C/c1ccccc1)C(=O)N[C@H](C=O)Cc1ccccc1 | > 10 | 0.022
41 | CC(C)(C)[C@H](NC(=O)/C=C/c1ccccc1)C(=O)N[C@H](C=O)Cc1ccccc1 | > 10 | 0.182
42 | CC(C)C[C@H](NC(=O)c1ccc2[nH]ccc2c1)C(=O)N[C@H](C=O)Cc1ccccc1 | > 10 | 0.00205
43 | CC(C)C[C@H](NC(=O)Cc1c[nH]c2ccccc12)C(=O)N[C@H](C=O)Cc1ccccc1 | > 10 | 0.00318
44 | CCC[C@H](NC(=O)/C=C/c1ccccc1)C(=O)N[C@H](C=O)Cc1ccccc1 | > 10 | 0.125
45 | CSCC[C@@H](C=O)NC(=O)[C@H](CC(C)C)NC(=O)/C=C/c1ccccc1 | > 10 | 0.0294
46 | CC(C)C[C@H](NC(=O)c1ccccc1F)C(=O)N[C@H](C=O)Cc1ccccc1 | > 10 | 0.00966
47 | CC(C)C[C@H](NC(=O)/C=C/c1ccc(C(F)(F)F)cc1)C(=O)N[C@H](C=O)Cc1ccccc1 | > 10 | 0.0758
48 | O=C[C@H](Cc1ccccc1)NC(=O)[C@H](Cc1cccc(F)c1)NC(=O)/C=C/c1ccccc1 | > 10 | 0.00656

Row | Structure (SMILES) | IC50 [1] [µM] | IC50 [2] [µM]
49 | CCC(=O)[C@H](Cc1ccccc1)NC(=O)[C@H](CC(C)C)NC(=O)/C=C/c1ccccc1 | > 10 | > 1
50 | CC(C)C[C@H](NC(=O)/C=C/c1ccccc1)C(=O)N[C@H](C=O)Cc1ccccc1Cl | > 10 | 0.058
51 | CC(C)C[C@H](NC(=O)c1ccccc1)C(=O)N[C@H](C=O)Cc1ccccc1 (Bz-Leu-Phe-aldehyde) | > 10 | 0.00756
52 | CC(C)C[C@H](NC(=O)/C=C/c1ccccc1Cl)C(=O)N[C@H](C=O)Cc1ccccc1 | > 10 | 0.00957
53 | CC(C)C[C@H](NC(=O)/C=C/c1cccc(Cl)c1)C(=O)N[C@H](C=O)Cc1ccccc1 | > 10 | 0.0271
54 | CCCCCC(=O)N[C@@H](CC(C)C)C(=O)N[C@H](C=O)Cc1ccccc1 (Hexanoyl-Leu-Phe-aldehyde) | > 10 | 0.0346
55 | CC(C)C[C@H](NC(=O)/C=C/c1ccccc1)C(=O)N[C@H](C=O)Cc1cccc(F)c1 | > 10 | 0.162
56 | CC(C)C[C@H](NC(=O)c1cccc2ccccc12)C(=O)N[C@H](C=O)Cc1ccccc1 | > 10 | 0.00126
57 | CC(C)C[C@H](NC(=O)/C=C/c1ccccc1)C(=O)N[C@H](C=O)Cc1ccc(C(F)(F)F)cc1 | > 10 | 0.253
58 | C=CC(=O)[C@H](Cc1ccccc1)NC(=O)[C@H](CC(C)C)NC(=O)/C=C/c1ccccc1 | > 10 | > 1
59 | CC(C)C[C@H](NC(=O)/C=C/c1cccc(F)c1)C(=O)N[C@H](C=O)Cc1ccccc1 | > 10 | 0.0462
60 | COC(=O)/C=C/[C@H](Cc1ccccc1)NC(=O)[C@H](CC(C)C)NC(=O)/C=C/c1ccccc1 | > 10 | > 1
61 | CC(C)C[C@H](NC(=O)c1ccc2ccccc2c1)C(=O)N[C@H](C=O)Cc1ccccc1 | > 10 | 0.00283
62 | CC(C)C[C@H](NC(=O)C1CCOCC1)C(=O)N[C@H](C=O)Cc1ccccc1 | > 10 | 0.0202
63 | CC(C)C[C@H](NC(=O)c1ccc(-c2ccccc2)cc1)C(=O)N[C@H](C=O)Cc1ccccc1 | > 10 | 0.0209
64 | O=C[C@H](Cc1ccccc1)NC(=O)[C@H](Cc1ccc(F)cc1)NC(=O)/C=C/c1ccccc1 | > 10 | 0.00668
65 | CC(C)C[C@H](NC(=O)c1cccnc1)C(=O)N[C@H](C=O)Cc1ccccc1 (Nicotinoyl-Leu-Phe-aldehyde) | > 10 | 0.0144
66 | O=C[C@H](Cc1ccccc1)NC(=O)[C@H](Cc1ccccc1F)NC(=O)/C=C/c1ccccc1 | > 10 | 0.00682
67 | CC(C)C[C@H](NC(=O)c1ccncc1)C(=O)N[C@H](C=O)Cc1ccccc1 | > 10 | 0.00846
68 | CC(C)C[C@H](NC(=O)/C=C/c1ccccc1)C(=O)N[C@@H](Cc1ccccc1)C(=O)CCl | > 10 | 0.00987
69 | CC(C)C[C@H](NC(=O)C1CCCCC1)C(=O)N[C@H](C=O)Cc1ccccc1 | > 10 | 0.00606
70 | CC(C)C[C@H](NC(=O)c1ccc(Br)cc1)C(=O)N[C@H](C=O)Cc1ccccc1 | > 10 | 0.00959
71 | CC(C)C[C@H](NC(=O)c1ccccn1)C(=O)N[C@H](C=O)Cc1ccccc1 | > 10 | 0.0264
